How the values were obtained:
[1] = molecular target: BET BD1; set-up: method as in Zhao et al., 2018; details: ref Zhao et al., 2018, cited from earlier work
[2] = system: non-BET bromodomain-containing proteins; set-up: method as in Zhao et al., 2018; details: ref Zhao et al., 2018; cited from earlier work
[3] = Dynamic PET/CT imaging in mice, baseline uptake and biodistribution; assay type: in vivo, male Balb/c mice
Protocol: Following the successful radiosynthesis, we stepped forward to evaluate [^11C]1 as a potential BET PET radiotracer by PET imaging experiments in rodents. Dynamic PET imaging in male Balb/c mice was conducted following the injection of [^11C]1 via the tail vein at the dose of 3.7–7.4 Mbq for each scan. Each dynamic PET imaging scan lasted for 60 min and followed by a 10-min of computed tomography (CT) scan. The PET/CT imaging analysis was then performed by dynamic data collection and image reconstruction. The biodistribution of [^11C]1 in the whole-body of mice is initially studied. As depicted in Figure 2, four time-points (5, 10, 30, and 60 min) after [^11C]1 injection were selected to evaluate the uptake, biodistribution, and clearance of the radioligand in the organs of interests. […] In the heart, spleen, and lung, the uptakes of radioligand reached a peak sharply and followed by gradual wash-out post-injection.
(§1) The general procedure for rodent PET/CT studies was described previously ([Bai et al., 2019], [2020a]). Briefly, the PET/CT scan was carried out by a Triumph Trimodality/SPECT scanner (Gamma Medica, Northridge, CA, United States). Mice were arranged under anesthetized 2% isoflurane (Patterson Vet Supply, Inc., Greeley, CO, United States) in a carrier of 2 L/min medical oxygen during the imaging scanning. [^11C]1 (3.7–7.4 Mbq per animal, n = 2) was injected in mice via a lateral tail vein catheterization before PET acquisition. For the blocking study, the radioligand was administrated after CF53, or JQ1 was injected via a lateral tail vein catheterization 5-min before the start of PET acquisition. Dynamic PET acquisition lasted for 60 min followed by 10-min CT for anatomic co-registration. PET data were reconstructed using a 3D-MLEM method resulting in full width at a half-maximum resolution of 1 mm. These files were imported and analyzed using AMIDE ([Loening and Gambhir, 2003]) (a medical imaging data examiner) software (an open-source software, Los Angeles, CA, United States) and PMOD (PMOD 4.01, PMOD Technologies Ltd., Zurich, Switzerland).
(§2) Dynamic PET data were collected and the corresponding images were reconstructed by 3D-MLEM method resulting in full width at a half-maximum resolution of 1 mm. Volumes of interest (VOIs) were generated manually in forms of spheres under the guide of high-resolution CT structural images. TACs were exported as decay-corrected activity per unit volume. The TACs were expressed as percent injected dose per unit volume (%ID/cc) for analysis.

[4] = system: BET proteins; assay: PET/CT blocking studies in mice (specific binding); assay type: in vivo; details: for radioactivity reduction in the whole-brain: based on TACs; for decrease of radioligand concentration in organs of interest: average over organs
Protocol: To evaluate the specific binding of [^11C]1, the blocking studies were carried out. Mice were pre-treated with unlabeled 1 (1.0 mg/kg) and JQ1 (1.0 mg/kg) at 5-min prior to the administration of [^11C]1. The PET/CT imaging and time-activity curves (TAC) of baseline and blocking studies are shown separately in Figure 3.
as §1, §2

SMILES | Ki ([1]; binding affinity to BET BD1) [nM] | Kd ([1]; to BET BD1, printed in Figure 1) [nM] | selectivity over non-BET bromodomain-containing proteins [2] | distribution in blood-rich organs ([3]; heart, liver and kidney, i.v. tail vein, 5-60 min post-injection) | time of max brain uptake ([3]; post-injection, whole brain) [min] | brain-blood barrier (BBB) penetration ([3]; whole brain PET) | max brain uptake ([3]; whole-brain analysis, i.v.) [% ID/cc] | radioactivity reduction in the whole-brain ([4]; JQ1-blocking (1.0 mg/kg JQ1)) [%] | decrease of radioligand concentration in organs of interest ([4]; JQ1-blocking: pre-treated with JQ1 (1.0 mg/kg) 5 min prior) | radioactivity reduction in the whole-brain ([4]; self-blocking (1.0 mg/kg CF53)) [%] | decrease of radioligand concentration in organs of interest ([4]; self-blocking: pre-treated with unlabeled 1 (1.0 mg/kg) 5 min prior)
COc1cc2c(cc1-c1c(C)noc1C)[nH]c1nc(C)nc(Nc3cc(C4CC4)nn3C)c12 [Compound 1] | < 1 | 0.49 to 2.2 | high selectivity | – | – | – | – | – | – | – | –
Cc1nc(Nc2cc(C3CC3)nn2C)c2c(n1)[nH]c1cc(-c3c(C)noc3C)c(O[11CH3])cc12 [[^11C]1] | – | – | – | highly distributed | ~2 | limited | 0.9 | ~50 | over 40% | ~50 | over 40%

From publication PMC7434981, “Development of a Novel Positron Emission Tomography (PET) Radiotracer Targeting Bromodomain and Extra-Terminal Domain (BET) Family Proteins” (Frontiers in Molecular Biosciences, 2020)
